Test results reported in patent publication US20080051457A1, “Optically Active Phthalamide Derivative, Agricultural or Horticultural Insecticide, and Method of Using the Same” (priority 2004, published 2008).

Tested on: not listed separately
Assay: logP (pH2.3), physical properties of Tables 1 to 3
Format: physicochemical
Settings: not given
From the text: However, the present invention is not limited to these compounds. In the tables, the term “physical properties” means a melting point or logp. The symbol “Me” represents a methyl group, “Et” represents an ethyl group, “Pr” represents a propyl group, “-n” represents normal, and “-i” represents iso.

| Structure (SMILES) | Physical properties logP(pH2.3) |
| --- | --- |
| CC[C@@H](CSC)NC(=O)c1c(Cl)cccc1C(=O)Nc1ccc(C(F)(C(F)(F)F)C(F)(F)F)cc1C [Compound 1-339] | 4.47 |
| CC[C@@H](CS(C)(=O)=O)NC(=O)c1c(Cl)cccc1C(=O)Nc1ccc(C(F)(C(F)(F)F)C(F)(F)F)cc1C [Compound 1-341] | 3.31 |
| CC[C@@H](CSC)NC(=O)c1c(Br)cccc1C(=O)Nc1ccc(C(F)(C(F)(F)F)C(F)(F)F)cc1C [Compound 1-342] | 4.54 |
| CC[C@@H](C[S+](C)[O-])NC(=O)c1c(Br)cccc1C(=O)Nc1ccc(C(F)(C(F)(F)F)C(F)(F)F)cc1C (stereo partly shown) [Compound 1-343] | 2.83 |
| CC[C@@H](CS(C)(=O)=O)NC(=O)c1c(Br)cccc1C(=O)Nc1ccc(C(F)(C(F)(F)F)C(F)(F)F)cc1C [Compound 1-344] | 3.37 |
| CC[C@@H](CSC)NC(=O)c1c(I)cccc1C(=O)Nc1ccc(C(F)(C(F)(F)F)C(F)(F)F)cc1C [Compound 1-345] | 4.62 |
| CC[C@@H](C[S+](C)[O-])NC(=O)c1c(I)cccc1C(=O)Nc1ccc(C(F)(C(F)(F)F)C(F)(F)F)cc1C (stereo partly shown) [Compound 1-346] | 2.90 |
| CC[C@@H](CS(C)(=O)=O)NC(=O)c1c(I)cccc1C(=O)Nc1ccc(C(F)(C(F)(F)F)C(F)(F)F)cc1C [Compound 1-347] | 3.45 |
| CSC[C@@H](NC(=O)c1c(Cl)cccc1C(=O)Nc1ccc(C(F)(C(F)(F)F)C(F)(F)F)cc1C)C(C)C [Compound 1-348] | 4.77 |
| Cc1cc(C(F)(C(F)(F)F)C(F)(F)F)ccc1NC(=O)c1cccc(Cl)c1C(=O)N[C@H](C[S+](C)[O-])C(C)C (stereo partly shown) [Compound 1-349] | 3.03 |
| Cc1cc(C(F)(C(F)(F)F)C(F)(F)F)ccc1NC(=O)c1cccc(Cl)c1C(=O)N[C@H](CS(C)(=O)=O)C(C)C [Compound 1-350] | 3.54 |
| CSC[C@@H](NC(=O)c1c(Br)cccc1C(=O)Nc1ccc(C(F)(C(F)(F)F)C(F)(F)F)cc1C)C(C)C [Compound 1-351] | 4.80 |
| Cc1cc(C(F)(C(F)(F)F)C(F)(F)F)ccc1NC(=O)c1cccc(Br)c1C(=O)N[C@H](C[S+](C)[O-])C(C)C (stereo partly shown) [Compound 1-352] | 3.06 |
| Cc1cc(C(F)(C(F)(F)F)C(F)(F)F)ccc1NC(=O)c1cccc(Br)c1C(=O)N[C@H](CS(C)(=O)=O)C(C)C [Compound 1-353] | 3.62 |
| CSC[C@@H](NC(=O)c1c(I)cccc1C(=O)Nc1ccc(C(F)(C(F)(F)F)C(F)(F)F)cc1C)C(C)C [Compound 1-354] | 4.97 |
| Cc1cc(C(F)(C(F)(F)F)C(F)(F)F)ccc1NC(=O)c1cccc(I)c1C(=O)N[C@H](C[S+](C)[O-])C(C)C (stereo partly shown) [Compound 1-355] | 3.13 |
| Cc1cc(C(F)(C(F)(F)F)C(F)(F)F)ccc1NC(=O)c1cccc(I)c1C(=O)N[C@H](CS(C)(=O)=O)C(C)C [Compound 1-356] | 3.70 |
| CSC[C@H](CC(C)C)NC(=O)c1c(Cl)cccc1C(=O)Nc1ccc(C(F)(C(F)(F)F)C(F)(F)F)cc1C [Compound 1-357] | 5.11 |
| Cc1cc(C(F)(C(F)(F)F)C(F)(F)F)ccc1NC(=O)c1cccc(Cl)c1C(=O)N[C@@H](CC(C)C)C[S+](C)[O-] (stereo partly shown) [Compound 1-358] | 3.27 |
| Cc1cc(C(F)(C(F)(F)F)C(F)(F)F)ccc1NC(=O)c1cccc(Cl)c1C(=O)N[C@@H](CC(C)C)CS(C)(=O)=O [Compound 1-359] | 3.77 |
| CSC[C@H](CC(C)C)NC(=O)c1c(Br)cccc1C(=O)Nc1ccc(C(F)(C(F)(F)F)C(F)(F)F)cc1C [Compound 1-360] | 5.16 |
| Cc1cc(C(F)(C(F)(F)F)C(F)(F)F)ccc1NC(=O)c1cccc(Br)c1C(=O)N[C@@H](CC(C)C)C[S+](C)[O-] (stereo partly shown) [Compound 1-361] | 3.30 |
| Cc1cc(C(F)(C(F)(F)F)C(F)(F)F)ccc1NC(=O)c1cccc(Br)c1C(=O)N[C@@H](CC(C)C)CS(C)(=O)=O [Compound 1-362] | 3.82 |
| CSC[C@H](CC(C)C)NC(=O)c1c(I)cccc1C(=O)Nc1ccc(C(F)(C(F)(F)F)C(F)(F)F)cc1C [Compound 1-363] | 5.24 |
| Cc1cc(C(F)(C(F)(F)F)C(F)(F)F)ccc1NC(=O)c1cccc(I)c1C(=O)N[C@@H](CC(C)C)C[S+](C)[O-] (stereo partly shown) [Compound 1-364] | 3.39 |
| Cc1cc(C(F)(C(F)(F)F)C(F)(F)F)ccc1NC(=O)c1cccc(I)c1C(=O)N[C@@H](CC(C)C)CS(C)(=O)=O [Compound 1-365] | 3.87 |

Same assay, conditions: Table 1

| Physical properties: logP | Structure (SMILES) |
| --- | --- |
| 2.96 | CCS(=O)(=O)C[C@H](C)NC(=O)c1c(Br)cccc1C(=O)Nc1cc(F)c(OC(F)(F)F)cc1Cl [Compound 1-194] |
| 4.18 | CCSC[C@H](C)NC(=O)c1c(Br)cccc1C(=O)Nc1cc(F)c(OC(F)(F)F)cc1Br [Compound 1-195] |
| 2.99 | CCS(=O)(=O)C[C@H](C)NC(=O)c1c(Br)cccc1C(=O)Nc1cc(F)c(OC(F)(F)F)cc1Br [Compound 1-197] |
| 4.63 | CCSC[C@H](C)NC(=O)c1c(Br)cccc1C(=O)Nc1ccc(C(F)(C(F)(F)F)C(F)(F)F)c(F)c1C [Compound 1-198] |
| 2.90 | CC[S+]([O-])C[C@H](C)NC(=O)c1c(Br)cccc1C(=O)Nc1ccc(C(F)(C(F)(F)F)C(F)(F)F)c(F)c1C (stereo partly shown) [Compound 1-199] |
| 3.39 | CCS(=O)(=O)C[C@H](C)NC(=O)c1c(Br)cccc1C(=O)Nc1ccc(C(F)(C(F)(F)F)C(F)(F)F)c(F)c1C [Compound 1-200] |
| 4.54 | CCSC[C@H](C)NC(=O)c1c(Cl)cccc1C(=O)Nc1ccc(C(F)(C(F)(F)F)C(F)(F)F)c(F)c1C [Compound 1-201] |
| 2.86 | CC[S+]([O-])C[C@H](C)NC(=O)c1c(Cl)cccc1C(=O)Nc1ccc(C(F)(C(F)(F)F)C(F)(F)F)c(F)c1C (stereo partly shown) [Compound 1-202] |
| 3.34 | CCS(=O)(=O)C[C@H](C)NC(=O)c1c(Cl)cccc1C(=O)Nc1ccc(C(F)(C(F)(F)F)C(F)(F)F)c(F)c1C [Compound 1-203] |
| 4.23 | CSC[C@H](C)NC(=O)c1c(Cl)cccc1C(=O)Nc1ccc(C(F)(C(F)(F)F)C(F)(F)F)c(F)c1C [Compound 1-204] |
| 2.69 | Cc1c(NC(=O)c2cccc(Cl)c2C(=O)N[C@@H](C)C[S+](C)[O-])ccc(C(F)(C(F)(F)F)C(F)(F)F)c1F (stereo partly shown) [Compound 1-205] |
| 4.21 | CCSC[C@H](C)NC(=O)c1c(Cl)cccc1C(=O)Nc1ccc(C(F)(F)C(F)(F)F)c(F)c1C [Compound 1-207] |
| 2.56 | CC[S+]([O-])C[C@H](C)NC(=O)c1c(Cl)cccc1C(=O)Nc1ccc(C(F)(F)C(F)(F)F)c(F)c1C (stereo partly shown) [Compound 1-208] |
| 3.01 | CCS(=O)(=O)C[C@H](C)NC(=O)c1c(Cl)cccc1C(=O)Nc1ccc(C(F)(F)C(F)(F)F)c(F)c1C [Compound 1-209] |
| 4.37 | CCSC[C@H](C)NC(=O)c1c(Cl)cccc1C(=O)Nc1ccc(C(F)(F)C(F)(F)F)c(Cl)c1C [Compound 1-210] |
| 3.14 | CCS(=O)(=O)C[C@H](C)NC(=O)c1c(Cl)cccc1C(=O)Nc1ccc(C(F)(F)C(F)(F)F)c(Cl)c1C [Compound 1-212] |
| 3.88 | CSC[C@H](C)NC(=O)c1c(Cl)cccc1C(=O)Nc1ccc(C(F)(F)C(F)(F)F)c(F)c1C [Compound 1-213] |
| 2.82 | Cc1c(NC(=O)c2cccc(Cl)c2C(=O)N[C@@H](C)CS(C)(=O)=O)ccc(C(F)(F)C(F)(F)F)c1F [Compound 1-215] |
| 4.36 | CCc1cc(C(F)(C(F)(F)F)C(F)(F)F)ccc1NC(=O)c1cccc(Cl)c1C(=O)N[C@@H](C)CSC [Compound 1-216] |
| 3.26 | CCc1cc(C(F)(C(F)(F)F)C(F)(F)F)ccc1NC(=O)c1cccc(Cl)c1C(=O)N[C@@H](C)CS(C)(=O)=O [Compound 1-218] |
| 4.42 | CCc1cc(C(F)(C(F)(F)F)C(F)(F)F)ccc1NC(=O)c1cccc(Br)c1C(=O)N[C@@H](C)CSC [Compound 1-219] |
| 3.31 | CCc1cc(C(F)(C(F)(F)F)C(F)(F)F)ccc1NC(=O)c1cccc(Br)c1C(=O)N[C@@H](C)CS(C)(=O)=O [Compound 1-221] |

Tested on: Common White (Pieris Rapae)
Assay: Comparative Test 2: control of common white on cabbage by prick-in-hole application at transplanting
Format: in vivo
Settings: Dosage 10 mgAI/plant, 27 days after the transplanting
Protocol: An agent containing, as an active ingredient (AI), each of the compounds shown in the table and a comparative compound 1 (the compound with Compound No. 216 described in JP-A-2001-131141), was put into a prick-in-hole on the ground, and then cabbage seedlings (Variety: YR Seitoku) transplanted onto the treated hole (at the end of April). 27 days after the transplanting, the number of larvae of common white was counted. The control value was calculated according to the expression indicated below, and it was then evaluated in accordance with the criterion noted in Comparative test 1 above. One test group consisted of 20 cabbage loaves. [formula]

| Structure (SMILES) | Evaluation of control value (27 days later) |
| --- | --- |
| Cc1cc(C(F)(C(F)(F)F)C(F)(F)F)ccc1NC(=O)c1cccc(I)c1C(=O)N[C@@H](C)C[S+](C)[O-] (stereo partly shown) [Compound 1-4] | 10 (Mortality 91%-100%) |
| Cc1cc(C(F)(C(F)(F)F)C(F)(F)F)ccc1NC(=O)c1cccc(I)c1C(=O)N[C@@H](C)CS(C)(=O)=O [Compound 1-5] | 10 (Mortality 91%-100%) |
| Cc1cc(C(F)(C(F)(F)F)C(F)(F)F)ccc1NC(=O)c1cccc(Br)c1C(=O)N[C@@H](C)CS(C)(=O)=O [Compound 1-74] | 10 (Mortality 91%-100%) |
| Cc1cc(C(F)(C(F)(F)F)C(F)(F)F)ccc1NC(=O)c1cccc(Cl)c1C(=O)N[C@@H](C)CS(C)(=O)=O [Compound 1-77] | 10 (Mortality 91%-100%) |
